“Also recorded” adds a separate entry of the source.
Assay: Treatment-emergent adverse events (MedDRA, NCI-CTCAE v4.03), safety populations
Assay type: in vivo, human
Description: Overall safety in Parts A and B was assessed by tabulating TEAEs, coded using the Medical Dictionary for Regulatory Activities (MedDRA) version 22.1, and graded according to NCI-CTCAE v4.03 criteria. TEAEs were classified as related or unrelated to amcenestrant therapy based upon the local investigating physician’s clinical judgment. The safety population included all patients exposed to at least one dose of the study treatment. Results were analyzed using descriptive statistics.

## O=C(O)c1ccc2c(c1)CCCC(c1ccc(Cl)cc1Cl)=C2c1ccc(O[C@H]2CCN(CCCF)C2)cc1 [amcenestrant, 6-(2,4-Dichlorophenyl)−5-[4-[(3S)−1-(3-fluoropropyl)pyrrolidin-3-yl]oxyphenyl]−8,9-dihydro-7H-benzo[7]annulene-2-carboxylic acid]
300 mg BID, 6 participants
  TEAE diarrhea: 3 n
  participants with at least 1 TEAE regardless of relationship: 6 participants
Part A
  TEAE leading to treatment discontinuation: No TEAE led to treatment discontinuation
Part A (n = 16)
  treatment-related TEAE asthenia, patients: 18.8%
  treatment-related TEAE constipation, patients: 18.8%
  treatment-related TEAE decreased appetite, patients: 18.8%
  treatment-related TEAE diarrhea, patients: 25.0%
  treatment-related TEAE hot flush, patients: 31.3%
  treatment-related TEAE nausea, patients: 25.0%
  treatment-related TEAE night sweats, patients: 18.8%
Part A, 20-600 mg QD (N = 16)
  Any TEAE, TEAEs, All grades: 16 (100) n (%)
  Any TEAE, TEAEs, Grade 1: 5 (31.3) n (%)
  Any TEAE, TEAEs, Grade 2: 7 (43.8) n (%)
  Any TEAE, TEAEs, Grade ≥3: 4 (25.0) n (%)
  Any TEAE, Treatment-related TEAEs, All Grades: 13 (81.3) n (%)
  Any TEAE, Treatment-related TEAEs, Grade 1: 10 (62.5) n (%)
  Any TEAE, Treatment-related TEAEs, Grade 2: 3 (18.8) n (%)
  Any TEAE, Treatment-related TEAEs, Grade ≥3: 0 n (%)
  Arthralgia, TEAEs, All grades: 5 (31.3) n (%)
  Arthralgia, TEAEs, Grade 1: 2 (12.5) n (%)
  Arthralgia, TEAEs, Grade 2: 3 (18.8) n (%)
  Arthralgia, TEAEs, Grade ≥3: 0 n (%)
  Arthralgia, Treatment-related TEAEs, All Grades: 2 (12.5) n (%)
  Arthralgia, Treatment-related TEAEs, Grade 1: 1 (6.3) n (%)
  Arthralgia, Treatment-related TEAEs, Grade 2: 1 (6.3) n (%)
  Arthralgia, Treatment-related TEAEs, Grade ≥3: 0 n (%)
  Asthenia, TEAEs, All grades: 4 (25.0) n (%)
  Asthenia, TEAEs, Grade 1: 2 (12.5) n (%)
  Asthenia, TEAEs, Grade 2: 2 (12.5) n (%)
  Asthenia, TEAEs, Grade ≥3: 0 n (%)
  Asthenia, Treatment-related TEAEs, All Grades: 3 (18.8) n (%)
  Asthenia, Treatment-related TEAEs, Grade 1: 3 (18.8) n (%)
  Asthenia, Treatment-related TEAEs, Grade 2: 0 n (%)
  Asthenia, Treatment-related TEAEs, Grade ≥3: 0 n (%)
  Back pain, TEAEs, All grades: 3 (18.8) n (%)
  Back pain, TEAEs, Grade 1: 2 (12.5) n (%)
  Back pain, TEAEs, Grade 2: 0 n (%)
  Back pain, TEAEs, Grade ≥3: 1 (6.3) n (%)
  Back pain, Treatment-related TEAEs, All Grades: 1 (6.3) n (%)
  Back pain, Treatment-related TEAEs, Grade 1: 1 (6.3) n (%)
  Back pain, Treatment-related TEAEs, Grade 2: 0 n (%)
  Back pain, Treatment-related TEAEs, Grade ≥3: 0 n (%)
  Constipation, TEAEs, All grades: 6 (37.5) n (%)
  Constipation, TEAEs, Grade 1: 5 (31.3) n (%)
  Constipation, TEAEs, Grade 2: 1 (6.3) n (%)
  Constipation, TEAEs, Grade ≥3: 0 n (%)
  Constipation, Treatment-related TEAEs, All Grades: 3 (18.8) n (%)
  Constipation, Treatment-related TEAEs, Grade 1: 3 (18.8) n (%)
  Constipation, Treatment-related TEAEs, Grade 2: 0 n (%)
  Constipation, Treatment-related TEAEs, Grade ≥3: 0 n (%)
  Decreased appetite, TEAEs, All grades: 6 (37.5) n (%)
  Decreased appetite, TEAEs, Grade 1: 6 (37.5) n (%)
  Decreased appetite, TEAEs, Grade 2: 0 n (%)
  Decreased appetite, TEAEs, Grade ≥3: 0 n (%)
  Decreased appetite, Treatment-related TEAEs, All Grades: 3 (18.8) n (%)
  Decreased appetite, Treatment-related TEAEs, Grade 1: 3 (18.8) n (%)
  Decreased appetite, Treatment-related TEAEs, Grade 2: 0 n (%)
  Decreased appetite, Treatment-related TEAEs, Grade ≥3: 0 n (%)
  Diarrhea, TEAEs, All grades: 6 (37.5) n (%)
  Diarrhea, TEAEs, Grade 1: 5 (31.3) n (%)
  Diarrhea, TEAEs, Grade 2: 1 (6.3) n (%)
  Diarrhea, TEAEs, Grade ≥3: 0 n (%)
  Diarrhea, Treatment-related TEAEs, All Grades: 4 (25.0) n (%)
  Diarrhea, Treatment-related TEAEs, Grade 1: 3 (18.8) n (%)
  Diarrhea, Treatment-related TEAEs, Grade 2: 1 (6.3) n (%)
  Diarrhea, Treatment-related TEAEs, Grade ≥3: 0 n (%)
  Dyspnea, TEAEs, All grades: 4 (25.0) n (%)
  Dyspnea, TEAEs, Grade 1: 2 (12.5) n (%)
  Dyspnea, TEAEs, Grade 2: 1 (6.3) n (%)
  Dyspnea, TEAEs, Grade ≥3: 1 (6.3) n (%)
  Dyspnea, Treatment-related TEAEs, All Grades: 1 (6.3) n (%)
  Dyspnea, Treatment-related TEAEs, Grade 1: 1 (6.3) n (%)
  Dyspnea, Treatment-related TEAEs, Grade 2: 0 n (%)
  Dyspnea, Treatment-related TEAEs, Grade ≥3: 0 n (%)
  Fatigue, TEAEs, All grades: 4 (25.0) n (%)
  Fatigue, TEAEs, Grade 1: 3 (18.8) n (%)
  Fatigue, TEAEs, Grade 2: 0 n (%)
  Fatigue, TEAEs, Grade ≥3: 1 (6.3) n (%)
  Fatigue, Treatment-related TEAEs, All Grades: 2 (12.5) n (%)
  Fatigue, Treatment-related TEAEs, Grade 1: 2 (12.5) n (%)
  Fatigue, Treatment-related TEAEs, Grade 2: 0 n (%)
  Fatigue, Treatment-related TEAEs, Grade ≥3: 0 n (%)
  Hot flush, TEAEs, All grades: 6 (37.5) n (%)
  Hot flush, TEAEs, Grade 1: 6 (37.5) n (%)
  Hot flush, TEAEs, Grade 2: 0 n (%)
  Hot flush, TEAEs, Grade ≥3: 0 n (%)
  Hot flush, Treatment-related TEAEs, All Grades: 5 (31.3) n (%)
  Hot flush, Treatment-related TEAEs, Grade 1: 5 (31.3) n (%)
  Hot flush, Treatment-related TEAEs, Grade 2: 0 n (%)
  Hot flush, Treatment-related TEAEs, Grade ≥3: 0 n (%)
  Hypoesthesia, TEAEs, All grades: 3 (18.8) n (%)
  Hypoesthesia, TEAEs, Grade 1: 3 (18.8) n (%)
  Hypoesthesia, TEAEs, Grade 2: 0 n (%)
  Hypoesthesia, TEAEs, Grade ≥3: 0 n (%)
  Hypoesthesia, Treatment-related TEAEs, All Grades: 0 n (%)
  Hypoesthesia, Treatment-related TEAEs, Grade 1: 0 n (%)
  Hypoesthesia, Treatment-related TEAEs, Grade 2: 0 n (%)
  Hypoesthesia, Treatment-related TEAEs, Grade ≥3: 0 n (%)
  Nausea, TEAEs, All grades: 6 (37.5) n (%)
  Nausea, TEAEs, Grade 1: 3 (18.8) n (%)
  Nausea, TEAEs, Grade 2: 3 (18.8) n (%)
  Nausea, TEAEs, Grade ≥3: 0 n (%)
  Nausea, Treatment-related TEAEs, All Grades: 4 (25.0) n (%)
  Nausea, Treatment-related TEAEs, Grade 1: 3 (18.8) n (%)
  Nausea, Treatment-related TEAEs, Grade 2: 1 (6.3) n (%)
  Nausea, Treatment-related TEAEs, Grade ≥3: 0 n (%)
  Night sweat, TEAEs, All grades: 3 (18.8) n (%)
  Night sweat, TEAEs, Grade 1: 3 (18.8) n (%)
  Night sweat, TEAEs, Grade 2: 0 n (%)
  Night sweat, TEAEs, Grade ≥3: 0 n (%)
  Night sweat, Treatment-related TEAEs, All Grades: 3 (18.8) n (%)
  Night sweat, Treatment-related TEAEs, Grade 1: 3 (18.8) n (%)
  Night sweat, Treatment-related TEAEs, Grade 2: 0 n (%)
  Night sweat, Treatment-related TEAEs, Grade ≥3: 0 n (%)
  Urinary tract infection, TEAEs, All grades: 4 (25.0) n (%)
  Urinary tract infection, TEAEs, Grade 1: 0 n (%)
  Urinary tract infection, TEAEs, Grade 2: 3 (18.8) n (%)
  Urinary tract infection, TEAEs, Grade ≥3: 1 (6.3) n (%)
  Urinary tract infection, Treatment-related TEAEs, All Grades: 0 n (%)
  Urinary tract infection, Treatment-related TEAEs, Grade 1: 0 n (%)
  Urinary tract infection, Treatment-related TEAEs, Grade 2: 0 n (%)
  Urinary tract infection, Treatment-related TEAEs, Grade ≥3: 0 n (%)
Part A, Grade 1 palpitations and Grade 2 prolonged QT interval
  cardiac non-treatment-related TEAEs: 2 patients
Part A, Grade 1 photophobia
  eye disorder treatment-related TEAE: 1 patient
Part A, associated with disease progression, considered unrelated to amcenestrant
  serious TEAEs: three patients
Part B
  TEAE leading to treatment discontinuation: one Grade ≥3 TEAE of pneumonia led to treatment discontinuation
  eye disorder non-treatment-related TEAEs: Three eye disorder non-treatment-related TEAEs were reported in two patients
Part B / overall, by investigator
  serious TEAEs related to amcenestrant: none were considered related to amcenestrant; also recorded: No serious AEs were considered treatment-related
Part B, 400 mg QD (N = 49)
  ALT increased, TEAEs, All grades: 3 (6.1) n (%)
  ALT increased, TEAEs, Grade 1: 0 n (%)
  ALT increased, TEAEs, Grade 2: 0 n (%)
  ALT increased, TEAEs, Grade ≥3: 3 (6.1) n (%)
  ALT increased, Treatment-related TEAEs, All Grades: 0 n (%)
  ALT increased, Treatment-related TEAEs, Grade 1: 0 n (%)
  ALT increased, Treatment-related TEAEs, Grade 2: 0 n (%)
  ALT increased, Treatment-related TEAEs, Grade ≥3: 0 n (%)
  AST increased, TEAEs, All grades: 3 (6.1) n (%)
  AST increased, TEAEs, Grade 1: 0 n (%)
  AST increased, TEAEs, Grade 2: 0 n (%)
  AST increased, TEAEs, Grade ≥3: 3 (6.1) n (%)
  AST increased, Treatment-related TEAEs, All Grades: 0 n (%)
  AST increased, Treatment-related TEAEs, Grade 1: 0 n (%)
  AST increased, Treatment-related TEAEs, Grade 2: 0 n (%)
  AST increased, Treatment-related TEAEs, Grade ≥3: 0 n (%)
  Abdominal pain upper, TEAEs, All grades: 6 (12.2) n (%)
  Abdominal pain upper, TEAEs, Grade 1: 2 (4.1) n (%)
  Abdominal pain upper, TEAEs, Grade 2: 4 (8.2) n (%)
  Abdominal pain upper, TEAEs, Grade ≥3: 0 n (%)
  Abdominal pain upper, Treatment-related TEAEs, All Grades: 1 (2.0) n (%)
  Abdominal pain upper, Treatment-related TEAEs, Grade 1: 1 (2.0) n (%)
  Abdominal pain upper, Treatment-related TEAEs, Grade 2: 0 n (%)
  Abdominal pain upper, Treatment-related TEAEs, Grade ≥3: 0 n (%)
  Abdominal pain, TEAEs, All grades: 11 (22.4) n (%)
  Abdominal pain, TEAEs, Grade 1: 8 (16.3) n (%)
  Abdominal pain, TEAEs, Grade 2: 3 (6.1) n (%)
  Abdominal pain, TEAEs, Grade ≥3: 0 n (%)
  Abdominal pain, Treatment-related TEAEs, All Grades: 2 (4.1) n (%)
  Abdominal pain, Treatment-related TEAEs, Grade 1: 2 (4.1) n (%)
  Abdominal pain, Treatment-related TEAEs, Grade 2: 0 n (%)
  Abdominal pain, Treatment-related TEAEs, Grade ≥3: 0 n (%)
  Any TEAE, TEAEs, All grades: 49 (100) n (%)
  Any TEAE, TEAEs, Grade 1: 11 (22.4) n (%)
  Any TEAE, TEAEs, Grade 2: 22 (44.9) n (%)
  Any TEAE, TEAEs, Grade ≥3: 16 (32.7) n (%)
  Any TEAE, Treatment-related TEAEs, All Grades: 26 (53.1) n (%)
  Any TEAE, Treatment-related TEAEs, Grade 1: 21 (42.9) n (%)
  Any TEAE, Treatment-related TEAEs, Grade 2: 5 (10.2) n (%)
  Any TEAE, Treatment-related TEAEs, Grade ≥3: 0 n (%)
  Arthralgia, TEAEs, All grades: 10 (20.4) n (%)
  Arthralgia, TEAEs, Grade 1: 7 (14.3) n (%)
  Arthralgia, TEAEs, Grade 2: 3 (6.1) n (%)
  Arthralgia, TEAEs, Grade ≥3: 0 n (%)
  Arthralgia, Treatment-related TEAEs, All Grades: 4 (8.2) n (%)
  Arthralgia, Treatment-related TEAEs, Grade 1: 3 (6.1) n (%)
  Arthralgia, Treatment-related TEAEs, Grade 2: 1 (2.0) n (%)
  Arthralgia, Treatment-related TEAEs, Grade ≥3: 0 n (%)
  Asthenia, TEAEs, All grades: 10 (20.4) n (%)
  Asthenia, TEAEs, Grade 1: 7 (14.3) n (%)
  Asthenia, TEAEs, Grade 2: 3 (6.1) n (%)
  Asthenia, TEAEs, Grade ≥3: 0 n (%)
  Asthenia, Treatment-related TEAEs, All Grades: 2 (4.1) n (%)
  Asthenia, Treatment-related TEAEs, Grade 1: 2 (4.1) n (%)
  Asthenia, Treatment-related TEAEs, Grade 2: 0 n (%)
  Asthenia, Treatment-related TEAEs, Grade ≥3: 0 n (%)
